Measurements: patent US20110208162A1, “METHODS FOR PREVENTING AGGREGATION OF ADIPOSE STROMAL CELLS” (Indiana University Rsearch and Technology Corporation, priority 2008, published 2011)
Entries after “also recorded” stand apart in the source; their conditions may differ.

Columns and labels:
ASCs = assay: Aggregation of fresh SVF or cultured ASCs in suspension buffer; format: cell-based, porcine or human; details: for concentration dependence of inhibition of ASC aggregation: EDTA detached ASCs, 2 hours vigorous shaking
Procedure: SVF was isolated from either excised dorsal hump (porcine) or lipoaspirated subcutaneous (human) adipose tissues using reagents and protocols supplied by Tissue Genesis Inc. (TGI). Cells were used either fresh or after enrichment for stromal cells, containing adipose-derived stem cells (ADSC), by attachment to and growth on uncoated tissue culture plastic. Low passage (P1-P4) cultured ASCs were detached from plastic by 2 mM EDTA treatment. 2−3×10^6 fresh SVF or cultured ASCs were incubated for increasing times in 1 ml of TGI suspension buffer, containing human serum proteins, under varying conditions as indicated in Figure legends. Cell suspensions were vigorously rocked during incubation. At the times indicated the suspensions were observed macroscopically, noting aggregate size and number, as well as microscopically, to quantitate aggregates (defined as a tightly associated grouping of 4 or more cells) as well as individual cells.

ASC = ASC proliferation in presence of heparin; format: cell-based
freshly isolated ASC = assay: Observation of aggregation of freshly isolated ASC after resuspension in delivery medium; format: cell-based, pig; details: pre-treating SVF with heparin before infusion
Procedure: Isolation of the adipose stromal-vascular fraction (SVF). Fat was isolated using equipment and reagents from TGI-100 kits (Tissue Genesis, Inc, Honolulu, Hi., USA) following the manufacturer's instructions, with modifications as necessary in order to process the subcutaneous pig fat. Briefly, the fat was finely minced in a sterile container before washing 3 times with the supplied buffer solution. The fat was transferred into 50 ml conical screw cap centrifuge tubes before adding 10 ml of filtered ADIPASE™ solution. The tissue was dissociated by incubation in an Enviro-Genie incubator shaker for 2.5 hours, instead of the manufacturer's recommended digestion time for human fat of 45 minutes. The stromal-vascular pellet was recovered by centrifugation, filtered serially through 100 μm then 40 μm diameter pore size polypropylene filters (FALCON®). Viable cell counts were obtained using a hemacytometer and staining was performed with Trypan blue. Only cells larger than approximately 8 μm in diameter were counted. The cells were resuspended in a 20 ml cell the supplied suspension medium immediately before delivery. In the ASC-H group, the suspension medium contained 50 U heparin/ml. The cells were continuously mixed gently by hand until loaded into the syringe for delivery.
Preparative yield of ASC. […]

For O=C(O)CN(CCN(CC(=O)O)CC(=O)O)CC(=O)O [EDTA, ethylenediaminetetra-acetic acid], the “effect of EDTA on aggregation with co-addition of Ca^2+” value (ASCs; EDTA then 7 mM Ca^2+) was “reversed” and the “cell aggregation with EDTA in the buffer” value (ASCs; cultured ASCs, EDTA during incubation) was “inhibited; also recorded: blocked”.

trypsin was tested, and the “cell aggregation after trypsin pretreatment” value (ASCs; cultured ASCs, trypsin for 2 minutes) was “inhibited; also recorded: blocked”.

In the case of heparin, the ASC proliferation (ASC; highest concentration, 400 μg/ml) is reported as “totally inhibited”, the ASC proliferation (ASC; lowest concentration used, 50 μg/ml) is reported as “inhibitory” and the “aggregation at the highest concentration used” value (ASCs; 400 μg/ml) is reported as “still persisted”. The “concentration dependence of inhibition of ASC aggregation” value (ASCs) was “dose dependent”, the “concentration dependence of inhibition of ASC aggregation” value (ASCs; listed as Heparin) was “concentration dependent” and the “most effective concentration used for inhibition of ASC aggregation” value (ASCs; equals 100 U/ml) was 400 µg/mL. The aggregation of cells (ASCs; heparin 400 μg/ml final conc. in buffer) was “inhibits”, the “formation of aggregates of all sizes” value (ASCs; small 4-10 cells, large >10 cells, Image J counts) was “blocked” and the “aggregation and subsequent microinfarctions” value (freshly isolated ASC) was “substantially diminished”.
